Data taken from ChEMBL document CHEMBL5724914, “Linking interpersonal differences in gut microbiota composition and drug biotransformation activity” (2024).

Tests used:
[1] = The drug is tested on Z-021 corresponding to metagenome with ENA study accession number: PRJEB37062 and ENA sample accession number: ERS12561820 for biotransformation under anaerobic condition. The drug concentrations were measured over 9 timepoints collected between 0 and 24 hours of incubation by liquid-chromatography-coupled mass spectrometry (LC–MS); conditions: 2 µM
[2] = The drug is tested on Z-027 corresponding to metagenome with ENA study accession number: PRJEB37062 and ENA sample accession number: ERS12561826 for biotransformation under anaerobic condition. The drug concentrations were measured over 9 timepoints collected between 0 and 24 hours of incubation by liquid-chromatography-coupled mass spectrometry (LC–MS); conditions: 2 µM
[3] = human gut metagenome, 24 h, 2 µM
[4] = human gut metagenome, 24 h, 2 µM; remark: listed apart in the source
[5] = human gut metagenome, 24 h, 2 µM; remark: listed apart in the source
[6] = human gut metagenome, 24 h, 2 µM; remark: listed apart in the source
[7] = human gut metagenome, 24 h, 2 µM; remark: listed apart in the source
[8] = The drug is tested on WLS-027 corresponding to human gut metagenome with ENA study accession number: PRJEB37062 and ENA sample accession number: ERS12561744 for biotransformation under anaerobic condition. The drug concentrations were measured over 9 timepoints collected between 0 and 24 hours of incubation by liquid-chromatography-coupled mass spectrometry (LC–MS); conditions: 2 µM
[9] = The drug is tested on WLS-082 corresponding to human gut metagenome with ENA study accession number: PRJEB37062 and ENA sample accession number: ERS12561751 for biotransformation under anaerobic condition. The drug concentrations were measured over 9 timepoints collected between 0 and 24 hours of incubation by liquid-chromatography-coupled mass spectrometry (LC–MS); conditions: 2 µM
[10] = The drug is tested on Z-005 corresponding to metagenome with ENA study accession number: PRJEB37062 and ENA sample accession number: ERS12561805 for biotransformation under anaerobic condition. The drug concentrations were measured over 9 timepoints collected between 0 and 24 hours of incubation by liquid-chromatography-coupled mass spectrometry (LC–MS); conditions: 2 µM
[11] = human gut metagenome, 24 h, 2 µM; remark: listed apart in the source
[12] = human gut metagenome, 24 h, 2 µM; remark: listed apart in the source
[13] = human gut metagenome, 24 h, 2 µM; remark: listed apart in the source
[14] = human gut metagenome, 24 h, 2 µM; remark: listed apart in the source
[15] = The drug is tested on WLS-350 corresponding to human gut metagenome with ENA study accession number: PRJEB37062 and ENA sample accession number: ERS12561789 for biotransformation under anaerobic condition. The drug concentrations were measured over 9 timepoints collected between 0 and 24 hours of incubation by liquid-chromatography-coupled mass spectrometry (LC–MS); conditions: 2 µM
[16] = human gut metagenome, 24 h, 2 µM; remark: listed apart in the source
[17] = The drug is tested on WLS-007 corresponding to human gut metagenome with ENA study accession number: PRJEB37062 and ENA sample accession number: ERS12561742 for biotransformation under anaerobic condition. The drug concentrations were measured over 9 timepoints collected between 0 and 24 hours of incubation by liquid-chromatography-coupled mass spectrometry (LC–MS); conditions: 2 µM
[18] = The drug is tested on Z-016 corresponding to mouse gut metagenome with ENA study accession number: PRJEB37062 and ENA sample accession number: ERS12561815 for biotransformation under anaerobic condition. The drug concentrations were measured over 9 timepoints collected between 0 and 24 hours of incubation by liquid-chromatography-coupled mass spectrometry (LC–MS); conditions: 2 µM
[19] = The drug is tested on Z-004 corresponding to metagenome with ENA study accession number: PRJEB37062 and ENA sample accession number: ERS12561804 for biotransformation under anaerobic condition. The drug concentrations were measured over 9 timepoints collected between 0 and 24 hours of incubation by liquid-chromatography-coupled mass spectrometry (LC–MS); conditions: 2 µM
[20] = human gut metagenome, 24 h, 2 µM; remark: listed apart in the source
Also: call rule not given here.

For `CCN(C(C)=O)c1cccc(-c2ccnc3c(C#N)cnn23)c1` [ZALEPLON], the “Bacterial Biotransformation” value [1] was “Compound NOT metabolized”, the “Bacterial Biotransformation” value [2] was “Compound NOT metabolized” and the “Bacterial Biotransformation” value [3] was “Compound metabolized”. For the same molecule, the “Bacterial Biotransformation” value [4] was “Compound metabolized”, the “Bacterial Biotransformation” value [5] was “Compound metabolized” and the “Bacterial Biotransformation” value [6] was “Compound NOT metabolized”. For the same molecule, the “Bacterial Biotransformation” value [7] was “Compound metabolized”, the “Bacterial Biotransformation” value [8] was “Compound metabolized” and the “Bacterial Biotransformation” value [9] was “Compound metabolized”. For the same molecule, the “Bacterial Biotransformation” value [10] was “Compound NOT metabolized”, the “Bacterial Biotransformation” value [11] was “Compound metabolized” and the “Bacterial Biotransformation” value [12] was “Compound metabolized”. The “Bacterial Biotransformation” value [13] was “Compound metabolized”, the “Bacterial Biotransformation” value [14] was “Compound metabolized” and the “Bacterial Biotransformation” value [15] was “Compound metabolized”. For the same molecule, the “Bacterial Biotransformation” value [16] was “Compound metabolized”, the “Bacterial Biotransformation” value [17] was “Compound metabolized” and the “Bacterial Biotransformation” value [18] was “Compound metabolized”. For the same molecule, the “Bacterial Biotransformation” value [19] was “Compound metabolized” and the “Bacterial Biotransformation” value [20] was “Compound NOT metabolized”.
